Literature values as cited in patent US20230414620A1, “TOPICAL RUXOLITINIB FOR TREATING LICHEN PLANUS” (Incyte Corporation, priority 2020, published 2023).

Tests used:
[1] = tested on: refractory dermatomyositis (DM); details: case report
[2] = tested on: steroid refractory graft versus host disease (GVHD); details: systemic JAK1, 2 inhibition

Structure (SMILES): N#CC[C@H](C1CCCC1)n1cc(-c2ncnc3[nH]ccc23)cn1 [ruxolitinib, (R)-3-(4-(7H-pyrrolo[2,3-d]pyrimidin-4-yl)-1H-pyrazol-1-yl)-3-cyclopentylpropanenitrile]
- response in refractory dermatomyositis [1]: exceptional responder
- efficacy in steroid refractory GVHD [2]: highly effective
